Assay results taken from patent publication US6710017B2, “Compositions and methods for controlling algae in recirculating water systems” (Avecia, Inc., priority 2000, dated 2004).
Like-named read-outs stand apart in the source and are kept apart here.

Key:
[1] = test system: mustard algae; assay: Remedial laboratory study on algae, change in turbidity; details: for Change in Turbidity at active agent (ppm) five days post treatment: 5 ppm: 5 ppm active ingredient; for Change in Turbidity at active agent (ppm) five days post treatment: 5 ppm / Change in Turbidity at active agent (ppm) five days post treatment: 10 ppm: initial absorbance 0.10; for Change in Turbidity at active agent (ppm) five days post treatment: 5 ppm / Change in Turbidity at active agent (ppm) five days post treatment: 10 ppm / comments (Remedial Algae Control) / water turbidity: Table 2; for Change in Turbidity at active agent (ppm) five days post treatment: 10 ppm: 10 ppm active ingredient; for water turbidity: indicating killing of the mustard algae; for Turbidity @ 5 ppm active ingredient (Change in Turbidity at five days post treatment) / Turbidity @ 10 ppm active ingredient (Change in Turbidity at five days post treatment): Table 4
[2] = test system: mustard algae; assay: Preventative laboratory study on algae, visual growth score; details: for Score @ ppm active agent: 0: 0 ppm; for Score @ ppm active agent: 0 / Score @ ppm active agent: 10 / Score @ ppm active agent: 15 / Score @ 10 ppm / Score @ 15 ppm active ingredient: visual score 0 to 4, 10 days; for Score @ ppm active agent: 0 / Score @ ppm active agent: 10 / Score @ ppm active agent: 15: 27° C.; for Score @ ppm active agent: 10 / Score @ 10 ppm: 10 ppm; for Score @ ppm active agent: 15 / Score @ 15 ppm active ingredient: 15 ppm; for Score @ 10 ppm / Score @ 15 ppm active ingredient: Table 3; for Comments (Preventive Algae Control): Table 1
[3] = Description: The margin of exposure versus NOEL is determined by estimating the total daily dose of the herbicide to a child in a swimming pool and determining the ratio of the NOEL to this. The total daily exposure may be estimated as follows. Oral exposure is estimated by assuming that the swimmer is in the water 3 hours per day, and that the swimmer ingests 50 milliliters of pool water per hour of swimming. It is also assumed that the herbicide will be present in the pool water at a concentration of 10 parts per million, equivalent to 10 milligrams per liter of pool water. The daily oral exposure is therefore estimated as the product of the swimming duration, the ingestion rate, and the concentration in the pool water. Dermal exposure is estimated by assuming the swimmer is in the water 3 hours per day, that the total body surface area, 8800 square centimeters, is immersed in the water, and that the herbicide permeates the skin at a rate, expressed in centimeters per hour, predicted by a model for skin permeation based on chemical structure, the Skinperm model, developed by W. F. ten Berge. A short description of the Skinperm model, can be accessed at: http://home.wxs.nl/˜wtberge/, which is incorporated herein by reference. The daily dermal exposure is then estimated as the product of the permeation rate, the concentration of the herbicide in the pool water (expressed in milligrams per cubic centimeter), the swimming duration, and the total body surface area. The total daily exposure is estimated as the sum of the daily oral and daily dermal exposure. The daily dose, expressed in milligrams per kilogram bodyweight per day, is then estimated as the total daily exposure divided by an assumed body weight of 22 kilograms.
The margin of exposure versus RfD is determined by estimating the total daily dose of the herbicide to a child in a swimming pool, as described above, and determining the ratio of the RfD to this (i.e. margin of exposure/RfD).

[4] = Margin of exposure versus NOEL (estimated total daily dose to a child in a swimming pool); details: for Margin of Exposure vs NOEL (Target > 100): herbicides, Table A, ratio of NOEL to estimated daily dose, 10 ppm in pool water, child 22 kg, 3 hours per day; for Margin of Exposure vs NOEL: agricultural fungicides, Table B
Description: The herbicide preferably has a margin of exposure versus no observed effect level (“NOEL”) value of greater than 10, more preferably greater than 50, especially greater than 80, and more especially greater than 99. The margin of exposure versus NOEL is determined by estimating the total daily dose of the herbicide to a child in a swimming pool and determining the ratio of the NOEL to this. The total daily exposure may be estimated as follows. Oral exposure is estimated by assuming that the swimmer is in the water 3 hours per day, and that the swimmer ingests 50 milliliters of pool water per hour of swimming. It is also assumed that the herbicide will be present in the pool water at a concentration of 10 parts per million, equivalent to 10 milligrams per liter of pool water. The daily oral exposure is therefore estimated as the product of the swimming duration, the ingestion rate, and the concentration in the pool water. Dermal exposure is estimated by assuming the swimmer is in the water 3 hours per day, that the total body surface area, 8800 square centimeters, is immersed in the water, and that the herbicide permeates the skin at a rate, expressed in centimeters per hour, predicted by a model for skin permeation based on chemical structure, the Skinperm model, developed by W. F. ten Berge. A short description of the Skinperm model, can be accessed at: http://home.wxs.nl/˜wtberge/, which is incorporated herein by reference. The daily dermal exposure is then estimated as the product of the permeation rate, the concentration of the herbicide in the pool water (expressed in milligrams per cubic centimeter), the swimming duration, and the total body surface area. The total daily exposure is estimated as the sum of the daily oral and daily dermal exposure. The daily dose, expressed in milligrams per kilogram bodyweight per day, is then estimated as the total daily exposure divided by an assumed body weight of 22 kilograms.

[5] = herbicides, Table A, 10 ppm in pool water, child 22 kg

Cc1[nH]c(=O)n(C(C)(C)C)c(=O)c1Cl [Terbacil, 3-tert-Butyl-5-chloro-6-methyluracil]
Change in Turbidity at active agent (ppm) five days post treatment: 5 ppm [1]: −0.02 | Change in Turbidity at active agent (ppm) five days post treatment: 10 ppm [1]: −0.02 | comments (Remedial Algae Control) [1]: algicidal activity | water turbidity [1]: decreased significantly | Score @ ppm active agent: 0 [2]: 0 | Score @ ppm active agent: 10 [2]: 0 | Score @ ppm active agent: 15 [2]: 0 | Margin of Exposure vs. RfD (Target > 1) [3, 5]: 0.17 | Margin of Exposure vs NOEL (Target > 100) [4]: 16

COc1ccc(C(=CC(=O)N2CCOCC2)c2ccc(Cl)cc2)cc1OC [Dimethomorph, (E,Z)-4-[3-(4-chlorophenyl)-3-(3,4-dimethoxyphenyl)acryloyl]morpholine]
Margin of Exposure vs. RfD ([3]; human, 3 hours per day, 10 ppm): 0.8 | Margin of Exposure vs NOEL [4]: 88

CCc1cccc(CC)c1N(COC)C(=O)CCl [Alachlor, 2-chloro-2′,6′-diethyl-N-(methoxymethyl) acetanilide]
Margin of Exposure vs. RfD (Target > 1) [3, 5]: 0.1 | Margin of Exposure vs NOEL (Target > 100) [4]: 13

CCNc1nc(NC(C)C)nc(SC)n1 [Ametryn, 2-ethylamino-4-isopropylamino-6-methylthio-s-triazine]
Margin of Exposure vs. RfD (Target > 1) ([3]; human, 3 hours per day, 10 ppm): 0.02 | Margin of Exposure vs NOEL (Target > 100) [4]: 25

CCCC(=NOCC)C1=C(O)CC(CC(C)SCC)CC1=O (stereo not shown) [Sethoxydim, 2-[1-(ethoxyimino)butyl]-5-[2-(ethylthio)propyl]-3-hydroxy-2-cyclohexen-1-one]
Margin of Exposure vs. RfD (Target > 1) [3, 5]: 12 | Margin of Exposure vs NOEL (Target > 100) [4]: 119

alkyl dimethyl benzylammonium chloride [ADBAC]
Change in Turbidity at active agent (ppm) five days post treatment: 5 ppm [1]: +0.13 | Turbidity @ 5 ppm active ingredient (Change in Turbidity at five days post treatment) [1]: +0.13 | Change in Turbidity at active agent (ppm) five days post treatment: 10 ppm [1]: +0.03 | Turbidity @ 10 ppm active ingredient (Change in Turbidity at five days post treatment) [1]: +0.03 | control of the mustard algae ([1]; at 5× and 10× the EPA allowable dose): no control | Score @ ppm active agent: 0 [2]: 3 | Score @ ppm active agent: 10 [2]: 3 | Score @ 10 ppm [2]: 3 | Score @ ppm active agent: 15 [2]: 0 | Score @ 15 ppm active ingredient [2]: 0

CCc1cccc(C)c1N(C(=O)CCl)C(C)COC (stereo not shown) [metolachlor]
Change in Turbidity at active agent (ppm) five days post treatment: 5 ppm [1]: +0.12 | Change in Turbidity at active agent (ppm) five days post treatment: 10 ppm [1]: +0.06 | comments (Remedial Algae Control) [1]: Algistatic. More | Score @ ppm active agent: 0 [2]: 1 | Score @ ppm active agent: 10 [2]: 1 | Score @ ppm active agent: 15 [2]: 1 | Comments (Preventive Algae Control) [2]: very little growth

Poly(oxyethylene(dimethylimino)-ethylene(dimethylimino)-ethylene dichloride) [Polyquat]
Change in Turbidity at active agent (ppm) five days post treatment: 5 ppm [1]: +0.29 | Turbidity @ 5 ppm active ingredient (Change in Turbidity at five days post treatment) [1]: +0.29 | Change in Turbidity at active agent (ppm) five days post treatment: 10 ppm [1]: +0.28 | Turbidity @ 10 ppm active ingredient (Change in Turbidity at five days post treatment) [1]: +0.28 | Score @ ppm active agent: 0 [2]: 2 | Score @ ppm active agent: 10 [2]: 2 | Score @ 10 ppm [2]: 2 | Score @ ppm active agent: 15 [2]: 2 | Score @ 15 ppm active ingredient [2]: 2 | Comments (Preventive Algae Control) [2]: Bloom noticeable

CSc1nc(NC(C)C)nc(NC(C)C)n1 [Prometryn, N,N′-bis(1-methylethyl)-6-(methylthio)-1,3,5-triazine-2,4-diamine]
Margin of Exposure vs. RfD (Target > 1) ([3]; human, 3 hours per day, 10 ppm): 0.1 | Margin of Exposure vs NOEL (Target > 100) [4]: 50

Cc1cc(C2CC2)nc(Nc2ccccc2)n1 [Cyprodinil, 4-cyclopropyl-6-methyl-N-phenyl-2-pyrimidinamine]
Margin of Exposure vs. RfD ([3]; human, 3 hours per day, 10 ppm): 0.5 | Margin of Exposure vs NOEL [4]: 50

6-chloro-N-methyl-N′-(1-methylethyl)-1,3,5-triazine-2,4-diamine [Norflurazon]
Margin of Exposure vs. RfD (Target > 1) [3, 5]: 0.3 | Margin of Exposure vs NOEL (Target > 100) [4]: 20

C=CC1(C)OC(=O)N(c2cc(Cl)cc(Cl)c2)C1=O (stereo not shown) [Vinclozolin, 3-(3,5-dichlorophenyl)-5-methyl-5-vinyl-1,3-oxazolidine-2,4-dione]
Margin of Exposure vs. RfD ([3]; human, 3 hours per day, 10 ppm): 0.3 | Margin of Exposure vs NOEL [4]: 33

CC(C)OC(=O)Nc1cccc(Cl)c1 [Chlopropham, Isopropyl 3-chlorocarbanilate; isopropyl 3-chlorophenylcarbamate]
Margin of Exposure vs. RfD (Target > 1) ([3]; human, 3 hours per day, 10 ppm): 0.7 | Margin of Exposure vs NOEL (Target > 100) [4]: 67

CN(C)c1nc(=O)n(C2CCCCC2)c(=O)n1C [Hexazinone, 3-cyclohexyl-6-(dimethylamino)-1-methyl-1,3,5-triazine-2,4(1H,3H)-dione]
Change in Turbidity at active agent (ppm) five days post treatment: 5 ppm [1]: −0.03 | Change in Turbidity at active agent (ppm) five days post treatment: 10 ppm [1]: −0.03 | comments (Remedial Algae Control) [1]: algicidal activity | water turbidity [1]: decreased significantly | Margin of Exposure vs. RfD (Target > 1) ([3]; human, 3 hours per day, 10 ppm): 0.6 | Margin of Exposure vs NOEL (Target > 100) [4]: 63

COC(=O)c1ccccc1S(=O)(=O)NC(=O)Nc1nc(C)nc(OC)n1 [Metsulfuron-methyl, Methyl 2-[[[[(4-methoxy-6-methyl-1,3,5-triazin-2-yl)amino]carbonyl]amino]sulfonyl]benzoate]
Change in Turbidity at active agent (ppm) five days post treatment: 5 ppm [1]: +0.09 | Change in Turbidity at active agent (ppm) five days post treatment: 10 ppm [1]: +0.06 | comments (Remedial Algae Control) [1]: Algistatic. More | Margin of Exposure vs. RfD (Target > 1) ([3]; human, 3 hours per day, 10 ppm): 3.3 | Margin of Exposure vs NOEL (Target > 100) [4]: 333

COC(=O)c1ccccc1CS(=O)(=O)NC(=O)Nc1nc(OC)cc(OC)n1 [Bensulfuron ME, Methyl 2-[[[[[(4,6-dimethoxypyrimidin-2-yl)amino]carbonyl]amino]sulfonyl]methyl]-benzoate]
Change in Turbidity at active agent (ppm) five days post treatment: 5 ppm [1]: +0.01 | Change in Turbidity at active agent (ppm) five days post treatment: 10 ppm [1]: 0.00 | comments (Remedial Algae Control) [1]: algicidal activity | water turbidity [1]: decreased significantly | Margin of Exposure vs. RfD (Target > 1) ([3]; human, 3 hours per day, 10 ppm): 2.7 | Margin of Exposure vs NOEL (Target > 100) [4]: 265

CCc1cnc(C2=NC(C)(C(C)C)C(=O)N2)c(C(=O)O)c1 (stereo not shown) [Imazethapyr, 2-[4,5-dihydro-4-methyl-4-(1-methylethyl)-5-oxo-1H-imidazol-2-yl]-5ethyl-3-pyridinecarboxylic acid]
Margin of Exposure vs. RfD (Target > 1) ([3]; human, 3 hours per day, 10 ppm): 3.3 | Margin of Exposure vs NOEL (Target > 100) [4]: 3333

CCSC(=O)N1CCCCCC1 [Molinate, S-ethyl hexahydro-1H-azepine-1-carbothioate]
Margin of Exposure vs. RfD (Target > 1) [3, 5]: 0.03 | Margin of Exposure vs NOEL (Target > 100) [4]: 3

COc1nc(C)nc(NC(=O)NS(=O)(=O)c2ccccc2Cl)n1 [Chlorsulfuron, 2-chloro-N-[[(4-methoxy-6-methyl-1,3,5-triazin-2-yl)amino]carbonyl]benzenesulfonamide]
Margin of Exposure vs. RfD (Target > 1) ([3]; human, 3 hours per day, 10 ppm): 0.7 | Margin of Exposure vs NOEL (Target > 100) [4]: 67

CC(C)NC(=O)N1CC(=O)N(c2cc(Cl)cc(Cl)c2)C1=O [Iprodione, 3-(3,5-dichlorophenyl)-N-(1-methylethyl)-2,4-dioxo-1-imidazolidinecarboxamide]
Margin of Exposure vs. RfD ([3]; human, 3 hours per day, 10 ppm): 0.3 | Margin of Exposure vs NOEL [4]: 81

CCC(=O)Nc1ccc(Cl)c(Cl)c1 [Propanil, N-(3,4-dichlorophenyl)propanamide]
Change in Turbidity at active agent (ppm) five days post treatment: 5 ppm [1]: −0.02 | Change in Turbidity at active agent (ppm) five days post treatment: 10 ppm [1]: −0.03 | comments (Remedial Algae Control) [1]: algicidal activity | water turbidity [1]: decreased significantly | Margin of Exposure vs. RfD (Target > 1) [3, 5]: 0.1 | Margin of Exposure vs NOEL (Target > 100) [4]: 67
